{"source": "paper PMC3228837", "about": "(Journal of medicinal chemistry, 2011)", "key": {"NaV1.6": {"biological_target": "NaV1.6 (Mus musculus, UniProt Q9WTU3)", "sequence (Q9WTU3 whole entry, looked up)": "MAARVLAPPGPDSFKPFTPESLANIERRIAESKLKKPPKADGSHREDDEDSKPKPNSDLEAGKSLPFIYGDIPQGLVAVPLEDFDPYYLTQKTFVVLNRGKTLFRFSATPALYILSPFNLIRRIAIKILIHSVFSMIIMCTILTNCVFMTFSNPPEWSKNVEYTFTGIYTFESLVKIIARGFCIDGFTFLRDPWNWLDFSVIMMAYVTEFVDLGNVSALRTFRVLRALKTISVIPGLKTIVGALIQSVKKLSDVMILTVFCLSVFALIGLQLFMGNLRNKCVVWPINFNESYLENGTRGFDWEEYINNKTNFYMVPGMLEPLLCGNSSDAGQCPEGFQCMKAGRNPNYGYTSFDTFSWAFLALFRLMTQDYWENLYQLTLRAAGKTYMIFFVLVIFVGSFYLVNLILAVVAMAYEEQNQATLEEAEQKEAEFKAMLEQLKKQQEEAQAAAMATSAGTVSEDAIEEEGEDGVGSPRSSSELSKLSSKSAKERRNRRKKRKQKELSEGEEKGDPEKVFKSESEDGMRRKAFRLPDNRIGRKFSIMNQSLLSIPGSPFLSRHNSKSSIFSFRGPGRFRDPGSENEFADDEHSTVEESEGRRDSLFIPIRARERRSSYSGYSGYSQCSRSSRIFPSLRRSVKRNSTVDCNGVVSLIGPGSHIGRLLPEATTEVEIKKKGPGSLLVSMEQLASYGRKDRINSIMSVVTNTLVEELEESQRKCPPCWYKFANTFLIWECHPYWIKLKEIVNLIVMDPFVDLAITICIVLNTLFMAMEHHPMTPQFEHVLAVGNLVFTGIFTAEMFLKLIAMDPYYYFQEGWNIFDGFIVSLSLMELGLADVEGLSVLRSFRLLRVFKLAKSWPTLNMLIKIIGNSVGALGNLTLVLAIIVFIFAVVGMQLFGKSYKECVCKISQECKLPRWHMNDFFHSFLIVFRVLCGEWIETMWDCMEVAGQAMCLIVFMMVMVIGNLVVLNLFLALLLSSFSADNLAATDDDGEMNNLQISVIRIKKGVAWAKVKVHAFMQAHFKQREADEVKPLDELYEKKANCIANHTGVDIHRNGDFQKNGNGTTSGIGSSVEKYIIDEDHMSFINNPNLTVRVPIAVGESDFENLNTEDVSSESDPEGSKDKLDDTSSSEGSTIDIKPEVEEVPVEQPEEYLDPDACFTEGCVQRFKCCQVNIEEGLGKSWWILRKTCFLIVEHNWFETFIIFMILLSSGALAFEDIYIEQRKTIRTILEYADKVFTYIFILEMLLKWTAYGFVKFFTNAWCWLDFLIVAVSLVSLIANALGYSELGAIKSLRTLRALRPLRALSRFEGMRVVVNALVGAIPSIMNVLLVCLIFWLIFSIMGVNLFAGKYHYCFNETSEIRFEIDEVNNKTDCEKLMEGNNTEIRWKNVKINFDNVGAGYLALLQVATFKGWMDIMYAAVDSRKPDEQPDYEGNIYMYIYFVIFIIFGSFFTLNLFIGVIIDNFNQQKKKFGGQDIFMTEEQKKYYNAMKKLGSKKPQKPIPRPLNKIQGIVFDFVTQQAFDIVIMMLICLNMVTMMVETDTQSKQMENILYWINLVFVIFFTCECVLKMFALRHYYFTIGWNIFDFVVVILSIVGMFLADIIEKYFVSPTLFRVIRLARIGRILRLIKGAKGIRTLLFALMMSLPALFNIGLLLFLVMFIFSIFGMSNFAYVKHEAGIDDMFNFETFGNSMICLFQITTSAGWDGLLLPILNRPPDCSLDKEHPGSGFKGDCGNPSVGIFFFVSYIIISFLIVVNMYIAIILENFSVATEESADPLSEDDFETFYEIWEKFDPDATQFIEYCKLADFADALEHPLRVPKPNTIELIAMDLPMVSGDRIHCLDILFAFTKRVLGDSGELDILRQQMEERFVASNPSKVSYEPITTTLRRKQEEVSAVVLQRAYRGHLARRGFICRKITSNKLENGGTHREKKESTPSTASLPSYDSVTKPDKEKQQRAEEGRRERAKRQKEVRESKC", "format": "cell-based"}, "NaV1.2": {"biological_target": "NaV1.2 (Rattus norvegicus, UniProt P04775)", "sequence (P04775 whole entry, looked up)": "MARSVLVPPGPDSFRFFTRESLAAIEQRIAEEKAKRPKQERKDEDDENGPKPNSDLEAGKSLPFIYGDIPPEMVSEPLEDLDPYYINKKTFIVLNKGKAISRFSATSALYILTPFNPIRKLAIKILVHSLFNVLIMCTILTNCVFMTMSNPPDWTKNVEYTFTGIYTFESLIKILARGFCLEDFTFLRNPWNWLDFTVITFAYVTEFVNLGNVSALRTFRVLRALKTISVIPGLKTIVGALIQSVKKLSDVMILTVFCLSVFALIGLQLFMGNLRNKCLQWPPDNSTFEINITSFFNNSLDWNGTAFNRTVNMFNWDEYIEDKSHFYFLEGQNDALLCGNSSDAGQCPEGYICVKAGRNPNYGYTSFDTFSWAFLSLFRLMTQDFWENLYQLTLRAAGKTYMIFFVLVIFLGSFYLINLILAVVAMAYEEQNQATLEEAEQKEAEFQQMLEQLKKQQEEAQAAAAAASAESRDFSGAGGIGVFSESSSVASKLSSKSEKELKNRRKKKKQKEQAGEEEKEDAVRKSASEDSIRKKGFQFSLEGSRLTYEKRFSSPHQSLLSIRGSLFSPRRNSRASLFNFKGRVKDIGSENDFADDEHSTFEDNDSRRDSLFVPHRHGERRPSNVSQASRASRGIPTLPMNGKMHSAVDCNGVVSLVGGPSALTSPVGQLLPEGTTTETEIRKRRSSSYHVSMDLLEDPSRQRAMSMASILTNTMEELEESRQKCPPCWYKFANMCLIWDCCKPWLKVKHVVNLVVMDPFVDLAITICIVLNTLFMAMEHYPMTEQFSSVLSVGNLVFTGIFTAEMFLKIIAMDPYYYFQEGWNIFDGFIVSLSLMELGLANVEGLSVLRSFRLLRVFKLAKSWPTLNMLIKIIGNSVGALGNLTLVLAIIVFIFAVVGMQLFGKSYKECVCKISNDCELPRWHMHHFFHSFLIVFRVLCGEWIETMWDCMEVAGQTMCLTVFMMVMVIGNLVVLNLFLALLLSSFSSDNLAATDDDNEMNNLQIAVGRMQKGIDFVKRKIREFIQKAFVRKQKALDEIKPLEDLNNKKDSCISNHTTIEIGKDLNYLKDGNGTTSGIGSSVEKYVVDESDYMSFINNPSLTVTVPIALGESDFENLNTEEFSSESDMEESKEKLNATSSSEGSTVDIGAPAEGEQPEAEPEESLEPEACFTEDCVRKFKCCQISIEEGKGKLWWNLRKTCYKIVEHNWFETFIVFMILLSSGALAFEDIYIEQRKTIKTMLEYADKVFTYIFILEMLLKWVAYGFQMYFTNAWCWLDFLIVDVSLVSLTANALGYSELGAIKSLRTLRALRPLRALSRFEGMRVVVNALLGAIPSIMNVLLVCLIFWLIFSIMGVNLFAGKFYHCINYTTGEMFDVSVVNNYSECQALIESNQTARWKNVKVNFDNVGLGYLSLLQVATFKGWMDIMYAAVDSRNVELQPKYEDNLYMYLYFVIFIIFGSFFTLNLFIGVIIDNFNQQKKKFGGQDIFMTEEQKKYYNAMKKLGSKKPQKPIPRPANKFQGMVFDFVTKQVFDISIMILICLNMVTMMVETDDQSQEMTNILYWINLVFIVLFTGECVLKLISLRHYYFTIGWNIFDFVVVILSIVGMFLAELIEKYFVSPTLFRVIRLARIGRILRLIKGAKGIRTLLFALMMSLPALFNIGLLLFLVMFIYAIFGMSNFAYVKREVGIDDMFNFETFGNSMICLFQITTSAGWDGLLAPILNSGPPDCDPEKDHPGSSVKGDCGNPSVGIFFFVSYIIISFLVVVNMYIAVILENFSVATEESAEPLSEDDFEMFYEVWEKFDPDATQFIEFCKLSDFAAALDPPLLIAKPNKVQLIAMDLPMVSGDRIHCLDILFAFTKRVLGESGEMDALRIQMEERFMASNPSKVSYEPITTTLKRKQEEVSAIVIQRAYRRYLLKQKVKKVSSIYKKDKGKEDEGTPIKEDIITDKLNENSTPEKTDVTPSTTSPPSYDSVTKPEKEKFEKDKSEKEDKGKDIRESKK", "format": "cell-based"}}, "data": [{"substance": "Ac-DSKWKRDHSR-NH2 [Peptide D5K9]", "values": [{"measurement": "% block of NaV1.6", "setting": "NaV1.6", "value": "36.0 ± 0.7", "unit": "%"}, {"measurement": "% block of NaV1.2", "setting": "NaV1.2", "value": "33.1 ± 0.9", "unit": "%"}]}]}
